Measured values reported in ChEMBL document CHEMBL4480396 (Eur J Med Chem, 2019).

Experiments:
Assay type in all cases: functional, cell-based
MGC-803 = assay: Antiproliferative activity against human MGC803 cells measured after 48 hrs by MTT assay; conditions: MGC-803, 48 h
PC-3 = assay: Antiproliferative activity against human PC3 cells measured after 48 hrs by MTT assay; conditions: PC-3, 48 h
HepG2 = assay: Antiproliferative activity against human HepG2 cells measured after 48 hrs by MTT assay; conditions: HepG2, 48 h

SMILES	IC50 (MGC-803)	IC50 (PC-3)	IC50 (HepG2)
COc1ccc(CN(C(=O)Cn2cc(COc3ccc4ccc(=O)oc4c3)nn2)c2cc(OC)c(OC)c(OC)c2)cc1	0.18 µM	0.86 µM	1.3 µM
COc1ccc(CN(C(=O)Cn2cc(CSc3nc4ccccc4o3)nn2)c2cc(OC)c(OC)c(OC)c2)cc1	1.85 µM	5.05 µM	15.6 µM
COc1ccc(CN(C(=O)Cn2cc(CNS(=O)(=O)c3ccc(Br)cc3)nn2)c2cc(OC)c(OC)c(OC)c2)cc1	0.43 µM	12.5 µM	7.37 µM
C#CCOc1ccc2ccc(=O)oc2c1	> 80 µM	> 80 µM	> 80 µM
COc1ccc(CN(C(=O)Cn2cc(COc3ccccc3)nn2)c2cc(OC)c(OC)c(OC)c2)cc1	12.5 µM	45.3 µM	20.5 µM
COc1ccc(CN(C(=O)Cn2cc(CSc3nnnn3C)nn2)c2cc(OC)c(OC)c(OC)c2)cc1	6.57 µM	10.9 µM	28.3 µM
COc1ccc(CN(C(=O)Cn2cc(CSc3nc4ccccc4s3)nn2)c2cc(OC)c(OC)c(OC)c2)cc1	0.48 µM	28.4 µM	49.2 µM
COc1ccc(CN(C(=O)Cn2cc(CSC3=NCCS3)nn2)c2cc(OC)c(OC)c(OC)c2)cc1	1.61 µM	16 µM	25 µM
COc1ccc(CN(C(=O)Cn2cc(CSc3nncs3)nn2)c2cc(OC)c(OC)c(OC)c2)cc1	5 µM	16.5 µM	38.6 µM
